Test results published in patent US20230121689A1, “CEPHALOSPORIN ANTIBACTERIAL COMPOUND AND PHARMACEUTICAL APPLICATION THEREOF” (priority 2020, published 2023).
≈ marks a conversion by molar mass, not a printed value. Where two headings read alike, the source gives them in different places.

Legend:
[1] = test system: Control Strain Pseudomonas aeruginosa ATCC 27853; assay: Test Example 2: antibacterial activity test (MIC); assay type: cell-based; settings: ATCC27853, ID-CAMHB, ATCC 27853, read-out: ID-CAMHB, MIC
How it was run: (§1)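 MIC by CLSI broth microdilution: compounds serially 2-fold diluted in sterile saline, 32–0.031 μg/mL (11 points, duplicate wells), added to bacterial suspension at 2-8×10^5 CFU/mL, with drug-free growth controls.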

[2] = test system: Carbapenem-resistant Acinetobacter baumannii (CRAB, Acinetobacter baumannii); assay: Test Example 2: antibacterial activity test (MIC); assay type: cell-based; settings: ID-CAMHB, read-out: ID-CAMHB, MIC
How it was run: as §1

[3] = test system: Carbapenem-resistant Enterobacteriaceae (CRE, Klebsiella pneumoniae); assay: Test Example 2: antibacterial activity test (MIC); assay type: cell-based; settings: ID-CAMHB, read-out: ID-CAMHB, MIC
How it was run: as §1

[4] = test system: Control strain Escherichia coli ATCC 25922; assay: Test Example 2: antibacterial activity test (MIC); assay type: cell-based; settings: ATCC25922, ID-CAMHB, ATCC 25922, read-out: ID-CAMHB, MIC
How it was run: as §1

[5] = test system: Carbapenem-resistant Pseudomonas aeruginosa (CRPA, Pseudomonas aeruginosa); assay: Test Example 2: antibacterial activity test (MIC); assay type: cell-based; settings: ID-CAMHB, read-out: ID-CAMHB, MIC
How it was run: as §1

[6] = test system: Carbapenem-resistant Pseudomonas aeruginosa (CRPA); assay: Test Example 1: antibacterial activity test (MIC); assay type: cell-based
Procedure: (§2) The test compounds were diluted in a gradient and used for an MIC assay on the test strains. The test compounds at an initial assay concentration of 32 μg/mL were diluted in a 2-fold gradient (11 concentration points in total), and two duplicate wells were set for each concentration. Additional wells without drug dosing were set as growth controls. The minimum inhibitory concentration (MIC) assay was performed with reference to the Clinical and Laboratory Standards Institute (CLSI) guidelines.
(§3) After the frozen strains were subcultured, a single colony was picked and re-suspended in normal saline or sterile water in a tube. The bacterial suspension was vortexed and adjusted to 0.5 McF using a spectrophotometer at the wavelength of 530 nm. The bacterial solution was taken by a pipette, added to a culture medium, diluted and mixed well, and seeded to a bacterial assay plate.
(§4) The 96-well plate was affixed with a disposable sealing film, shaken and mixed well, and visually observed using a plate reader. The minimum concentration of the compounds capable of inhibiting the growth of bacteria was defined as MIC as compared to the growth controls.

[7] = test system: Carbapenem-resistant Acinetobacter baumannii (CRAB); assay: Test Example 1: antibacterial activity test (MIC); assay type: cell-based
Procedure: as §2, §3, §4

[8] = test system: Carbapenem-resistant Enterobacteriaceae (CRE); assay: Test Example 1: antibacterial activity test (MIC); assay type: cell-based
Procedure: as §2, §3, §4

[9] = Test Example 3: pharmacokinetic study in cynomolgus monkeys; assay type: in vivo; settings: cynomolgus monkey, plasma, 10 mg/kg single intravenous infusion, individual animals
Procedure: An appropriate amount of a test compound was weighed precisely and added to a container, and 0.9% sodium chloride injection and 0.2 M NaOH solution were added thereto in an ice bath until the test compound was completely dissolved, so that a sample solution at a concentration of 2 mg/mL was obtained followed by storage at 2-8° C. for later use.
Species and strain: cynomolgus monkey Animal grade: general grade Animal source: Guangxi Xiongsen Primate Experimental Animal Breeding Development Co., Ltd. Number of the using of laboratory animal: SYXK (Su) 2019-0012
6 cynomolgus monkeys (half male and half female) were selected and randomly divided into 3 groups with 1 animal/sex in each group. The cynomolgus monkeys were administered with the test sample at a dose of 10 mg/kg by the single intravenous infusion. Blood samples were collected from each group of animals at the following time points: before administration, and 5 min, 15 min, 0.5 h, 1 h, 2 h, 4 h, 6 h, and 8 h after administration. In the test, the concentration of each test compound in the plasma of the cynomolgus monkey was detected by the LC-MS/MS method, and the lower limit of quantification of the analysis methods for the plasma samples were all 1 μg/mL. The plasma concentration data were analyzed by the non-compartmental analysis (NCA) of the analysis software for pharmacokinetic data, WinNonlin, pharmacokinetic parameters were calculated, and pharmacokinetic characteristics of the test compounds in cynomolgus monkeys after administration were investigated, with the results shown in the following table

[10] = both sexes, cynomolgus, iv, 10 mg/kg

CC(C)(O/N=C(\C(=O)N[C@@H]1C(=O)N2C(C(=O)[O-])=C(C[N+]3(CCNC(=O)c4ccc(O)c(O)c4Cl)CCCC3)CS[C@H]12)c1csc(N)n1)C(=O)O [Cefiderocol, reference compound]
MIC [1]: 0.0625 µg/mL (≈ 0.0831 µM) | MIC ([2]; FDA-CDC AR-BANK #0036 (strB, OXA-65, OXA-24, strA, sul2)): 0.25 µg/mL (≈ 0.332 µM) | MIC ([2]; FDA-CDC AR-BANK #0052 (OXA-58, OXA-100, sul2)): 0.0625 µg/mL (≈ 0.0831 µM) | MIC ([2]; FDA-CDC AR-BANK #0063 (OXA-23, OXA-65, OXA-24, sul2)): 8 µg/mL (≈ 10.6 µM) | MIC ([2]; FDA-CDC AR-BANK #0070 (OXA-58, OXA-100, sul2)): 0.125 µg/mL (≈ 0.166 µM) | MIC ([2]; FDA-CDC AR-BANK #0101 (strB, OXA-65, OXA-24, strA, sul2)): 1 µg/mL (≈ 1.33 µM) | MIC ([3]; FDA-CDC AR-BANK #0361 (TEM-1; SHV-12; KPC-2)): 2 µg/mL (≈ 2.66 µM) | MIC ([3]; FDA-CDC AR-BANK #0362 (TEM-1; SHV-11; KPC-2)): 0.5 µg/mL (≈ 0.665 µM) | MIC ([3]; FDA-CDC AR-BANK #0363 (TEM-1; SHV-12; KPC-2)): 0.25 µg/mL (≈ 0.332 µM) | MIC ([3]; FDA-CDC AR-BANK #0438 (aph(3′)-Ia, dfrA12, KPC-3, OmpK35, oqxA, oqxB, SHV-11)): 2 µg/mL (≈ 2.66 µM) | MIC ([3]; FDA-CDC AR-BANK #0453 (KPC-3, OmpK35, oqxA, oqxB, SHV-11, TEM-1B)): 1 µg/mL (≈ 1.33 µM) | MIC [4]: 0.0625 µg/mL (≈ 0.0831 µM) | MIC ([5]; FDA-CDC AR-BANK #0439 (aac(6′)-Il, aadA1b, BCR1, IMP-18, OXA-50)): 0.25 µg/mL (≈ 0.332 µM) | MIC ([5]; FDA-CDC AR-BANK #0441 (KPC-2)): 1 µg/mL (≈ 1.33 µM) | MIC ([5]; FDA-CDC AR-BANK #0444 (aac(6′)-Il, dfrB5, OXA-4, tet(G), VIM-2)): 2 µg/mL (≈ 2.66 µM) | MIC ([5]; FDA-CDC AR-BANK #0457 (aadA6, VIM-2)): 0.125 µg/mL (≈ 0.166 µM) | MIC ([6]; CRPA strain No. 100110): 0.047 µg/mL (≈ 0.0625 µM) | MIC ([6]; CRPA strain No. 110163): 1 µg/mL (≈ 1.33 µM) | MIC ([6]; CRPA strain No. 110224): 0.75 µg/mL (≈ 0.997 µM) | MIC ([6]; CRPA strain No. 110358): 1 µg/mL (≈ 1.33 µM) | MIC ([6]; CRPA strain No. 110390): 0.5 µg/mL (≈ 0.665 µM) | MIC ([7]; CRAB strain No. 100085): 0.5 µg/mL (≈ 0.665 µM) | MIC ([7]; CRAB strain No. 100333): 2 µg/mL (≈ 2.66 µM) | MIC ([7]; CRAB strain No. 110440): 1.5 µg/mL (≈ 1.99 µM) | MIC ([7]; CRAB strain No. 110477): 1 µg/mL (≈ 1.33 µM) | MIC ([7]; CRAB strain No. 110517): 0.5 µg/mL (≈ 0.665 µM) | MIC ([8]; CRE strain No. 100109): 1 µg/mL (≈ 1.33 µM) | MIC ([8]; CRE strain No. 100186): 0.5 µg/mL (≈ 0.665 µM) | MIC ([8]; CRE strain No. 110502): 12 µg/mL (≈ 16 µM) | MIC ([8]; CRE strain No. 110525): 6 µg/mL (≈ 7.98 µM) | MIC ([8]; CRE strain No. 311277): 5 µg/mL (≈ 6.65 µM) | AUC(0-inf) [9, 10]: 32400 ng·h/mL | AUC(0-t) [9, 10]: 26200 ng·h/mL | clearance [9, 10]: 5.14 mL/min/kg | half-life [9, 10]: 51.6 min | Cmax ([9]; both sexes, cynomolgus, iv, 10 mg/kg, read-out: Cmax): 30500 ng/mL | MRT ([9]; both sexes, cynomolgus, iv, 10 mg/kg, read-out: MRT): 42 min | Vd ([9]; both sexes, cynomolgus, iv, 10 mg/kg, read-out: Vd): 0.381 L/kg | Tmax ([9]; both sexes): 4.8 min | AUC last ([9]; 10 mg/kg): 23940 ng·h/mL | AUCinf ([9]; 10 mg/kg): 28350 ng·h/mL | CL ([9]; 10 mg/kg): 5.8793 mL/min/kg | Cmax ([9]; 10 mg/kg): 24330 ng/mL | Vd ([9]; 10 mg/kg): 0.37963 L/kg | t1/2 ([9]; 10 mg/kg): 45 min
